Assays:
[1] = tested on: inv(16)^+ AML CD34^+ cells; assay: Apoptosis of inv(16)+ AML CD34+ cells, Annexin V staining; assay type: cell-based, human
Text: (§1) Given that the frequency of TP53 mutation is relatively low in AML, altered post-translational modification by HDAC8 could represent an alternative p53-inactivating mechanism and contribute to drug resistance of AML stem cells. We first examined the expression of HDAC8 in CD34^+ stem and progenitor cells isolated from patients with inv(16)^+ AML compared to normal mobilized peripheral blood stem cells (PBSC).

[2] = tested on: MOLM13 cells; assay: Survival/apoptosis of MOLM13 AML cells by Annexin V labeling; assay type: cell-based, human
[3] = tested on: normal IMR-90 cells; assay: Cytotoxicity in normal IMR-90 cells; conditions: result in words
[4] = tested on: normal CD34^+ cells; assay: Apoptosis/cytotoxicity in normal CD34+ cells
Text: as §1

Structure (SMILES): COc1ccc(/C=C/C(=O)NO)c(-c2ccc(-c3ccccc3)cc2)c1 [Compound 22d, (E)-N-Hydroxy-4-methoxy-2-(biphenyl-4-yl)cinnamide]
- apoptosis of inv(16)+ AML CD34+ cells ([1]; 48 h, compared to normal CD34+ cells or non-inv(16) AML): selectively induced apoptosis
- 22d-induced apoptosis after p53 knock-down ([1]; p53 shRNA vs non-silencing shRNA control, 2.5-40 μM): reduction of 22d-induced apoptosis
- IC50 ([2]; 48-hr, Annexin V labeling, read-out: MOLM13 Apoptosis IC50): 3.62 µM
- survival of MOLM13 cells ([2]; 48 h, result in words): decreases with increased HDAC8i concentration
- cytotoxicity in normal IMR-90 cells [3]: no significant cytotoxicity
- difference between CD34+ cells from PBSC and CB ([4]; based on cell origin): no significant difference
- cytotoxicity in normal CD34+ cells ([4]; higher dose (40 μM), 48 h): Modest cytotoxicity

Source: patent publication US11505523B2, “HDAC8 inhibitors for treating cancer” (City of Hope, priority 2013, dated 2022)
